Laboratory results reported in patent US10195242B2, “Therapeutic compounds” (Wintermute Biomedical, Inc., priority 2013, dated 2019).

Assays:
Assay type in all cases: cell-based
Settings in all cases: twenty-four hours after inoculation, combination assay
[1] = system: methicillin-resistant Staphylococcus aureus (MRSA); assay: In vitro growth inhibition on sheep blood agar (SBA) plates
Procedure: (§1) In vitro testing was conducted to measure the efficacy of WT13-12 at inhibiting the growth of clinically relevant bacteria. […] WT13-12 was streaked across half of a sheep blood agar (SBA) plate and allowed to dry for 15 minutes. The other side was streaked with the vehicle but not containing WT13-12. After drying, 50 μL of purified bacteria at 100,000 col/mL was streaked onto the control and treated sides of the sheep blood agar plates. After streaking, the plates were incubated at 37° C. for 48 hours. Growth was assessed at 24 and 48 hours post-inoculation. Percent inhibition was determined by measuring the treated side vs. the control side with the control side set at 100% growth.
(§2) Each component of WT13-12 was tested individually or in paired combination in the in vitro bacterial growth inhibition assay described above to determine the relative contribution of each component.

[2] = system: Streptococcus agalactiae (Group B beta strep); assay: In vitro growth inhibition on SBA plates
Procedure: as §1, §2

[3] = system: Streptococcus pyogenes (Group A beta hemolytic strep); assay: In vitro growth inhibition on SBA plates
Procedure: as §1, §2

SMILES | growth inhibition of MRSA versus control [1] | growth inhibition of S. agalactiae versus control [2] | growth inhibition of S. pyogenes versus control [3]
N=C(N)NCCC[C@H](N)C(=O)O [L-Arginine] | no effect | – | –
C=CCCCCCCCCC(=O)O [undecylenic acid] | no effect | significant effect | significant inhibitory effects
